Measured values from PubChem BioAssay (NCI).
Where “and” joins values, the source holds several entries; their conditions need not be identical. Equal entries are not always repeated.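 Dose response: 5 concentrations. Exposure: 48 h. Format: 96-well plates. Endpoint: linear interpolation; highest concentration if not reached. Abbreviation: GI50, concentration required for 50% inhibition of growth. TGI: concentration producing complete growth inhibition.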

Experiments:
Assay in all cases: DTP human tumour cell line panel, 48 h
RPMI-8226 leukemia = test system: RPMI-8226 leukemia
HOP-62 NSCLC = test system: HOP-62 NSCLC
SK-MEL-28 melanoma = test system: SK-MEL-28 melanoma
M14 melanoma = test system: M14 melanoma
UACC-62 melanoma = test system: UACC-62 melanoma
SW-620 colon = test system: SW-620 colon
UO-31 renal = test system: UO-31 renal
RXF 393 renal = test system: RXF 393 renal
T-47D breast = test system: T-47D breast
MDA-MB-231 breast = test system: MDA-MB-231 breast
NCI-H226 lung = test system: NCI-H226 lung
HCT-15 colon = test system: HCT-15 colon
SF-539 CNS = test system: SF-539 CNS
ACHN renal = test system: ACHN renal
SF-268 CNS = test system: SF-268 CNS
SK-MEL-2 melanoma = test system: SK-MEL-2 melanoma

| SMILES | TGI (RPMI-8226 leukemia) | TGI (HOP-62 NSCLC) | TGI (SK-MEL-28 melanoma) | TGI (M14 melanoma) | TGI (UACC-62 melanoma) | TGI (SW-620 colon) | TGI (UO-31 renal) | TGI (RXF 393 renal) | TGI (T-47D breast) | TGI (MDA-MB-231 breast) | TGI (NCI-H226 lung) | TGI (HCT-15 colon) | TGI (SF-539 CNS) | TGI (ACHN renal) | TGI (SF-268 CNS) | TGI (SK-MEL-2 melanoma) | GI50 (RPMI-8226 leukemia) | GI50 (HOP-62 NSCLC) | GI50 (UO-31 renal) | GI50 (RXF 393 renal) |
| --- | --- | --- | --- | --- | --- | --- | --- | --- | --- | --- | --- | --- | --- | --- | --- | --- | --- | --- | --- | --- |
| CC1(C)CCc2c(ccc(C(=O)/C=C/c3ccc(O)cc3)c2O)O1 | 20.8 µM | 19.4 µM | 17 µM | 20.7 µM | 19.6 µM | 24.4 µM | 25.5 µM | 20.4 µM | 21 µM | 18.9 µM | 22.3 µM | 20.5 µM | 22 µM | 20.5 µM | 23.2 µM | 23.5 µM | – | – | – | – |
| COC1OC2COC(c3ccccc3)OC2C(O)C1OC(=S)c1ccccc1 (stereo not drawn) | 36.5 µM | 91.4 µM | > 100 µM | > 100 µM | > 100 µM | > 100 µM | > 100 µM | > 100 µM | 85 µM | > 100 µM | > 100 µM | > 100 µM | 87.1 µM | 67 µM | > 100 µM | > 100 µM | – | – | – | – |
| C/C1=C\[C@H](C)C[C@H](C)OC(=O)[C@H](C)NC(=O)[C@@H](Cc2ccc(O)c(Br)c2)N(C)C(=O)[C@H](C)NC(=O)[C@@H](C)C1 | 0.604 µM | 0.112 µM | > 10.6 µM | > 25 µM | > 25 µM | > 25 µM | 0.152 µM | 0.858 µM | > 25 µM | 0.518 µM | 0.787 µM | > 25 µM | 0.117 µM | 1.04 µM | 1.57 µM | 9.34 µM | – | – | – | – |
| O=C1N(Cc2ccccc2)C2CSCC2N1Cc1ccccc1 (stereo not drawn) | 59 µM | 58.3 µM | > 100 µM | 33.7 µM | 79.2 µM | > 100 µM | 93.5 µM | 69.4 µM | 91.8 µM | 68.3 µM | 64.6 µM | – | 76 µM | > 100 µM | > 100 µM | 46.4 µM | – | – | – | – |
| C[C@@H]1CC[C@H]2[C@H]1[C@H]1[C@@H](CC[C@]2(C)N=C=S)C1(C)C | 43.4 µM | > 100 µM | 49.7 µM | 78.1 µM | 42.6 µM | 36 µM | > 100 µM | 30.5 µM | > 100 µM | 52.7 µM | 38.8 µM | 64.6 µM | – | – | – | 43.9 µM | – | – | – | – |
| COc1ccc(N2C(=O)C3c4[nH]c5cc(C)ccc5c4C4CCC(C(C)(C)C)CC4C3C2=O)cc1 (stereo not drawn) | > 10 µM | > 10 µM | > 10 µM | > 10 µM | > 10 µM | > 10 µM | > 10 µM | > 10 µM | > 10 µM | > 10 µM | > 10 µM | > 10 µM | > 10 µM | > 10 µM | > 10 µM | > 10 µM | – | – | – | – |
| C=CC1(C)CC(=O)C2(O)C(C)(O1)C(OC(C)=O)C(O)C1C(C)(C)CCC(O)C12C (stereo not drawn) | 120 µM | > 150 µM | > 150 µM | – | 101 µM | > 150 µM | > 137 µM | 90.6 µM and > 119 µM | – | – | > 72.8 µM | > 150 µM | > 150 µM | – | > 150 µM | > 150 µM | > 57.2 µM | > 83.2 µM | > 72.5 µM | 4.98 µM |
| OC(C#CCN1CCCC1)(c1ccccc1)c1ccccc1Cl (stereo not drawn) | > 100 µM | 38.7 µM | 32.2 µM | – | 57.5 µM | 39.3 µM | > 100 µM | > 100 µM | > 100 µM | > 100 µM | > 100 µM | > 100 µM | 52.4 µM | 71.3 µM | > 100 µM | 61.5 µM | – | – | – | – |
| COc1ccc2oc(=N)c(C(=O)Nc3ccccc3)cc2c1 | 83 µM | 41.7 µM | > 100 µM | > 100 µM | – | 80.9 µM | > 100 µM | 42.3 µM | > 100 µM | > 100 µM | > 100 µM | > 100 µM | 51.6 µM | > 100 µM | 53.9 µM | 37.4 µM | – | – | – | – |
